Converted amounts (≈) assume the structure as drawn. “And” between values parts separate entries of the source, which are not always exact repeats. Equal values may be shown once. Read-outs that look alike come from different tables or passages of the source.
Columns and labels:
[1] = tested on: H. pylori ATCC 700392; assay: anti-Helicobacter pylori activity, microwell dilution method with MTT; assay type: cell-based; conditions: for MIC: read-out: MIC (H. pylori)
Method: The anti-Helicobacter pylori activity of the PF and NPF as well as the isolated compounds was evaluated against H. pylori ATCC 700392 (type strain, obtained from the American Type Culture Collection unit (ATCC), using microwell dilution method and clarithromycin as standard drug[37]. The detailed procedures were described in the supplementary file.
The anti-Helicobacter pylori activity of the PF and NPF as well as the isolated compounds was evaluated against H. pylori ATCC 700392 (a type strain, obtained from the American Type Culture Collection unit (ATCC), using microwell dilution method and clarithromycin as standard drug ^1. The tested samples were prepared in dimethyl sulfoxide and successive ten twofold dilutions (125- 0.24 µg/mL) were carried out in a 96-well plate. Each microplate well included forty μL of Brain Heart Infusion growth medium and 10% fetal bovine serum (FBS), ten μL of inoculum and fifty μL of the tested sample. The plates were incubated for 3 days, in 5% oxygen, 10% carbon dioxide, 85 % nitrogen atmosphere at 37°C. Forty μL of 3- (4, 5-dimethyl-thiazol-2-yl)- 2,5-diphenyl-tetrazolium bromide (MTT) at a final concentration of 0.5 mg/mL freshly prepared in H2O was added to each well and incubated for 30 min. The bacteria were biologically active when change to purple color was observed ^1. While no change in MTT color indicated inhibition. Solvent control (DMSO) and the standard antibiotic (clarithromycin) were used as negative and positive controls, respectively. The H. pylori inhibition % was calculated using the given formula:
% Inhibition = Abs control – Abs sample × 100 /Abs control.

[2] = target: T1, ovine COX-1 (Ovis aries, UniProt P05979); assay: COX-1 inhibitory activity, colourimetric COX inhibitor screening assay kit; assay type: biochemical; conditions: ovine COX-1; read-out: IC50 (COX-1)
T1 construct: purchased
T1 sequence (P05979 25-600): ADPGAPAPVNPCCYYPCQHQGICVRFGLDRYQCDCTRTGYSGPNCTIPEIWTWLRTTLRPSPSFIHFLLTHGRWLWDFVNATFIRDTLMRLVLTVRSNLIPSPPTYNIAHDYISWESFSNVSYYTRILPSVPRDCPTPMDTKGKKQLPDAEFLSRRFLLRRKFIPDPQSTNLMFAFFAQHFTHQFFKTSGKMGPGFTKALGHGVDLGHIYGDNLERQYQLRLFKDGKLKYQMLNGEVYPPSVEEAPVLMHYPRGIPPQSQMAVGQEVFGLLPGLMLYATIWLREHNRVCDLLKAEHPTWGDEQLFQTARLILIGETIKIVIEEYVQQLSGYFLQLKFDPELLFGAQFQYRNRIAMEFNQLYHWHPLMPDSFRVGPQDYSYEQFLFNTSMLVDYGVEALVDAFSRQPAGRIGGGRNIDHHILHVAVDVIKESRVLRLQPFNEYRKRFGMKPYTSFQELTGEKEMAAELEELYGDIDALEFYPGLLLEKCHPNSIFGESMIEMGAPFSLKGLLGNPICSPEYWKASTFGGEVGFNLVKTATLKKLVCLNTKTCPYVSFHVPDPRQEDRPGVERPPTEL
Method: The inhibitory COX activity was assayed colourimetrically by examining the inhibition of the ovine COX-1 and human recombinant COX-2 enzymes as described by George et al.[38], using a COX inhibitor screening assay kit. The detailed procedures were described in the supplementary file.
The inhibitory COX activity was assayed colourimetrically by examining the inhibition of the ovine COX-1 and human recombinant COX-2 enzymes as described by George et al. ^2, using a COX inhibitory screening assay kit. This assay determines the COX peroxidase activity by monitoring the appearance of N,N,N',N'-tetramethyl-p-phenylenediamine (TMPD). Assay buffer (150 μL 0.1 M Tris–HCl pH 8.0), 10 μL heme and 10μL enzyme (COX-1 or COX-2) were added in each well. Ten μL of each tested sample concentration was added to each well and incubated for 15 minutes at 37°C. After incubation, 20 μL of TMPD was added to each well. For initiating the reaction, 10 μL 10 mM arachidonic acid was added and the plates were further incubated for another 2 minutes at 37°C. For terminating the reaction, 50 μL 1 N HCl and saturated stannous chloride were added.
Reaction mixture containing assay buffer and heme acted as the blank and a mixture with either COX-1 or COX-2 assay buffer and heme acted as the 100% initial activity (IA). […] The absorbances of oxidized TMPD (blue colour) were read in ELISA plate reader at 590 nm. The % inhibition was calculated using the following formula:
COX % Inhibition= [(100%IA−Inhibitor)/ 100% IA x 100]. Where, IA: 100% initial activity.
The concentration at which the tested sample produces 50% inhibition of COX-1 and/or COX-2 (IC50) was determined. The selectivity index (SI) was calculated also as IC50 (COX-1)/ (COX-2).

[3] = tested on: RAW 264.7 macrophage cell line (NO); assay: nitric oxide (NO) inhibitory activity in lipopolysaccharide-stimulated macrophages; assay type: cell-based, murine; conditions: Mus musculus, RAW264.7; RAW 264.7 cells, 1 µg/mL lipopolysaccharide
Method: The detailed procedures were described in the supplementary file.
The cell was incubated at 37 °C in 5% carbon dioxide. RAW 264.7 cells were seeded onto a 96-well plate (1×10^5 cells/well) and incubated for 24 h. […] Followed by incubation, the cells stimulated with 1µg/mL of lipopolysaccharide for another 24 h. The supernatant was gently transferred to new 96-well plates and used for NO determination. L-N 6 - (1-iminoethyl) lysine hydrochloride), is used as standard drug. The absorbance (Abs) was measured in a microplate reader at 540 nm ^3. The percentage inhibition was calculated using the following formula:
Inhibition (%) = 1-[Control-Test] Control × 100.

[4] = target: T2, Human inosine-5′-monophosphate dehydrogenase (hIMPDH2) (Homo sapiens, UniProt P12268); assay: In vitro hIMPDH2 inhibition assay (NADH absorbance at 340 nm); assay type: biochemical; parameters: key to hIMPDH2 inhibitory activity: % hIMPDH2 inhibition; conditions: for hIMPDH2 inhibitory activity: in % (unit assumed)
T2 construct: purchased NovoCIB SAS (Lyon, France)
Method: Human inosine-5′-monophosphate dehydrogenase (hIMPDH2) was purchased from NovoCIB SAS (Lyon, France). […] The detailed procedures were described in the supplementary file.
Thus, irigenin was selected to test its HpIMPDH inhibitory activity by monitoring NADH production at concentration range of 10–0.078 µM compared to clarithromycin as standard drug. Also, to examine irigenin selectivity toward the bacterial IMPDH, human hIMPDH2 inhibition potential was assayed.
Human inosine-5′-monophosphate dehydrogenase (hIMPDH2) was purchased from NovoCIB SAS (Lyon, France). […] The assay was carried out in 96-well plates (Tarsons, 980040). The reaction buffer consisted of hundred mM KCl, hundred mM Tris–HCl (pH 8.6), and five mM DTT, 4% v/v DMSO with or without the tested compound and 0.15 mU of purified hIMPDH2 enzyme per well (from 1.5 mg/mL stock concentration). The enzyme stock solution final volume was 2 μL per well, which was insignificant to cause final assay buffer composition change. Addition of (substrate buffer) 0.2 mM of IMP and 0.2 mM of NAD^+ initiated the assay, then it was allowed to proceed for 30 min at 37 °C. The formed NADH was measured by reading the absorbance at 340 nm. […] The concentration of the tested sample leading to 50% hIMPDH2 inhibition (IC50) was estimated.

For `COc1cc(-c2coc3cc(O)c(OC)c(O)c3c2=O)cc(O)c1OC` [Irigenin (P3), 3′,5,7-trihydroxy-4′,5′,6 trimethoxyisoflavone], the MIC ([1]; Helicobacter pylori, ATCC700392) was 3.9 µg/mL and 10.8 µM, the “MIC (H. pylori)” value ([1]; concentration required for 100% inhibition, H. pylori ATCC 700392, ND = not detected) was 3.90 µg/mL (≈ 10.8 µM) and the MIC ([1]; concentration required for 100% inhibition, H. pylori ATCC 700392) was 10.82 µM (≈ 3.9 µg/mL). The IC50 [2] was 35.2 ± 1.4 µM, the IC50 [3] was 42.5 ± 1.8 µM and the IC50 [4] was > 10 µM. The hIMPDH2 inhibitory activity ([4]; sample conc. 0.078 (range 10–0.078 µM)) was 0.00, the hIMPDH2 inhibitory activity ([4]; sample conc. 0.156 (range 10–0.078 µM)) was 0.00 and the hIMPDH2 inhibitory activity ([4]; sample conc. 0.313 (range 10–0.078 µM)) was 0.00. For the same molecule, the hIMPDH2 inhibitory activity ([4]; sample conc. 0.625 (range 10–0.078 µM)) was 0.00, the hIMPDH2 inhibitory activity ([4]; sample conc. 1.25 (range 10–0.078 µM)) was 0.00 and the hIMPDH2 inhibitory activity ([4]; sample conc. 2.5 (range 10–0.078 µM)) was 4.81 ± 0.91. The hIMPDH2 inhibitory activity ([4]; sample conc. 5 (range 10–0.078 µM)) was 10.36 ± 0.72 and the hIMPDH2 inhibitory activity ([4]; sample conc. 10 (range 10–0.078 µM)) was 22.68 ± 1.00.

Reference: paper PMC9259591, “Irigenin, a novel lead from Iris confusa for management of Helicobacter pylori infection with selective COX-2 and HpIMPDH inhibitory potential” (Scientific Reports, 2022)
